Measured values taken from patent US20100285963A1, “SUBSTITUTED FLUOROALKOXYPHENYLSULFONYLUREAS” (priority 2001, published 2010).
Structures can show the parent of a compound that is named as a salt. Each block holds one molecule with its values, some of them ahead of it.

Key:
weeds [1] = test: Pre-emergence test (greenhouse), damage to weeds; assay type: in vivo; conditions: for activity against weeds: soil sprayed 24 hours after sowing, rated after three weeks as % damage vs untreated control
Protocol: (§1) Solvent: 5 parts by weight of acetone
(§2) Emulsifier: 1 part by weight of alkylaryl polyglycol ether
(§3) To produce a suitable preparation of active compound, 1 part by weight of active compound is mixed with the stated amount of solvent, the stated amount of emulsifier is added and the concentrate is diluted with water to the desired concentration.
(§4) Seeds of the test plants are sown in normal soil. After 24 hours, the soil is sprayed with the preparation of active compounds such that the particular amount of active compound desired is applied per unit area. The concentration of active compound in the spray liquor is chosen such that the particular amount of active compound desired is applied in 1000 liters of water per hectare.
(§5) After three weeks, the degree of damage to the plants is rated in % damage in comparison to the development of the untreated control. The figures denote: • 0%=no effect (like untreated control) • 100%=total destruction

[2] = system: crop plants, such as, for example, wheat and soya; test: Pre-emergence test (greenhouse), tolerance by crop plants; assay type: in vivo; conditions: after three weeks
Protocol: as §1, §2, §3, §4, §5

weeds [3] = test: Post-emergence test (greenhouse), damage to weeds; assay type: in vivo; conditions: for activity against weeds: test plants of 5-15 cm sprayed, rated after three weeks as % damage vs untreated control
Protocol: as §1, §2
(§6) To product a suitable preparation of active compound, 1 part by weight of active compound is mixed with the stated amount of solvent, the stated amount of emulsifier is added and the concentrate is diluted with water to the desired concentration.
(§7) Test plants of a height of 5-15 cm are sprayed with the preparation of active compound such that the particular amounts of active compound desired are applied per unit area. The concentration of the spray liquor is chosen such that the particular amounts of active compound desired are applied in 10001 of water/ha.
(§8) After three weeks, the degree of damage to the plants is rated in % damage in comparison to the development of the untreated control.
(§9) The figures denote: • 0%=no effect (like untreated control) • 100%=total destruction

[4] = system: crop plants, such as, for example, corn, wheat and sugar beet; test: Post-emergence test (greenhouse), tolerance by crop plants; assay type: in vivo; conditions: after three weeks
Protocol: as §1, §2, §6, §7, §8, §9

[5] = system: apple mildew pathogen Podosphaera leucotricha; test: Podosphaera test (apple)/protective; assay type: in vivo; conditions: protective; for efficacy against mildew of apples (Podosphaera leucotricha): application rate of 100 g/ha, evaluation 10 days after the inoculation; for % efficacy: apple, application rate 100 g/ha, 10 days after inoculation
Protocol: Solvent: 49 parts by weight of acetone
as §2
To produce a suitable preparation of active compound, 1 part by weight of active compound is mixed with the stated amounts of solvent and emulsifier, and the concentrate is diluted with water to the desired concentration.
To test for protective activity, young plants are sprayed with the preparation of active compound at the stated application rate. After the spray coating has dried on, the plants are inoculated with an aqueous spore suspension of the apple mildew pathogen Podosphaera leucotricha. The plants are then placed in a greenhouse at about 23° C. and a relative atmospheric humidity of about 70%.
Evaluation is carried out 10 days after the inoculation. 0% means an efficacy which corresponds to that of the control, whereas an efficacy of 100% means that no infection is observed.

[6] = 15 g of a.i./ha, after three weeks, Table A2
[7] = 30 g of a.i./ha, after three weeks, Table B7
[8] = 30 g of a.i./ha, after three weeks
[9] = 30 g of a.i./ha, after three weeks, Table B2
[10] = 8 g of a.i./ha, after three weeks, Table B6
[11] = 60 g of a.i./ha, after three weeks, Table A6
[12] = 30 g of a.i./ha, after three weeks, Table B5
[13] = 8 g of a.i./ha, after three weeks, Table B3
[14] = 15 g of a.i./ha, after three weeks
[15] = 125 g of a.i./ha, after three weeks
[16] = 250 g of a.i./ha, after three weeks

melting point: 185 °C
SMILES: COc1nc(C)nc(NC(=O)NS(=O)(=O)c2c(C)cccc2OCCF)n1 (as salt: sodium) [Example 2, N-[2-(2-fluoroethoxy)-6-methylphenyl-sulfonyl]-M-(4-methoxy-6-methyl-1,3,5-triazin-2-yl)urea sodium salt]

SMILES: COc1cc(OC)nc(NC(=O)NS(=O)(=O)c2c(OCCF)cccc2C(F)(F)F)n1 [(4)]
% damage Alopecurus (weeds [1]; [6]): 80% | % damage Chenopodium (weeds [1]; [6]): 100% | % damage Matricaria (weeds [1]; [6]): 100% | % damage Sorghum (weeds [1]; [6]): 80% | % damage Viola (weeds [1]; [6]): 100% | % damage Soya ([2]; 15 g of a.i./ha): 0% | % damage Wheat ([2]; 15 g of a.i./ha): 0% | % damage Abutilon (weeds [3]; [7]): 95% | % damage Alopecurus (weeds [3]; [7]): 90% | % damage Amaranthus (weeds [3]; [7]): 100% | % damage Ipomoea (weeds [3]; [7]): 95% | % damage Matricaria (weeds [3]; [7]): 100% | % damage Viola (weeds [3]; [7]): 95%

SMILES: CCCc1cccc(OCCCF)c1S(=O)(=O)NC(=O)Nc1nc(C)nc(OC)n1 [(7)]
% damage Chenopodium (weeds [1]; [8]): 90% | % damage Echinochloa (weeds [1]; [8]): 90% | % damage Galium (weeds [1]; [8]): 90% | % damage Stellaria (weeds [1]; [8]): 100% | % damage Viola (weeds [1]; [8]): 100% | % damage Wheat ([2]; 30 g of a.i./ha): 0% | % damage Abutilon (weeds [3]; [9]): 100% | % damage Alopecurus (weeds [3]; [9]): 90% | % damage Amaranthus (weeds [3]; [9]): 100% | % damage Datura (weeds [3]; [9]): 100% | % damage Solanum (weeds [3]; [9]): 100% | % damage Wheat ([4]; 30 g of a.i./ha, Table B2): 0%

SMILES: CCCc1cccc(OCCCF)c1S(=O)(=O)NC(=O)Nc1nc(OC)nc(OC)n1 [(8)]
% damage Chenopodium (weeds [1]; [8]): 90% | % damage Galium (weeds [1]; [8]): 90% | % damage Stellaria (weeds [1]; [8]): 100% | % damage Viola (weeds [1]; [8]): 100% | % damage Wheat ([2]; 30 g of a.i./ha): 0% | % damage Datura (weeds [3]; [10]): 90% | % damage Ipomoea (weeds [3]; [10]): 100% | % damage Matricaria (weeds [3]; [10]): 95% | % damage Solanum (weeds [3]; [10]): 100% | % damage Stellaria (weeds [3]; [10]): 95% | % damage Maize ([4]; 8 g of a.i./ha, Table B6): 10% | % damage Wheat ([4]; 8 g of a.i./ha, Table B6): 0%

SMILES: COc1cc(Cl)nc(NC(=O)NS(=O)(=O)c2c(C)cccc2OCCCF)n1 [(14)]
% damage Abutilon (weeds [1]; [11]): 95% | % damage Alopecurus (weeds [1]; [11]): 100% | % damage Amaranthus (weeds [1]; [11]): 95% | % damage Echinochloa (weeds [1]; [11]): 100% | % damage Galium (weeds [1]; [11]): 90% | % damage Sinapis (weeds [1]; [11]): 95% | % damage Amaranthus (weeds [3]; [12]): 100% | % damage Ipomoea (weeds [3]; [12]): 95% | % damage Matricaria (weeds [3]; [12]): 90% | % damage Sugar beet ([4]; 30 g of a.i./ha, Table B5): 0% | % damage Wheat ([4]; 30 g of a.i./ha, Table B5): 0%

SMILES: CCc1cccc(OCCCF)c1S(=O)(=O)NC(=O)Nc1nc(C)nc(OC)n1 [(17)]
% damage Abutilon (weeds [1]; [11]): 95% | % damage Alopecurus (weeds [1]; [11]): 95% | % damage Amaranthus (weeds [1]; [11]): 95% | % damage Echinochloa (weeds [1]; [11]): 95% | % damage Galium (weeds [1]; [11]): 95% | % damage Sinapis (weeds [1]; [11]): 90% | % damage Abutilon (weeds [3]; [13]): 100% | % damage Ipomoea (weeds [3]; [13]): 100% | % damage Lolium (weeds [3]; [13]): 90% | % damage Matricaria (weeds [3]; [13]): 100% | % damage Solanum (weeds [3]; [13]): 100% | % damage Stellaria (weeds [3]; [13]): 100% | % damage Wheat ([4]; 8 g of a.i./ha, Table B3): 10%

SMILES: CCc1cccc(OCCCF)c1S(=O)(=O)NC(=O)Nc1nc(Cl)cc(OC)n1 [(18)]
% damage Abutilon (weeds [3]; [14]): 90% | % damage Amaranthus (weeds [3]; [14]): 95% | % damage Matricaria (weeds [3]; [14]): 95% | % damage Xanthium (weeds [3]; [14]): 90% | % damage Wheat ([4]; 15 g of a.i./ha): 15%

SMILES: CCCc1cccc(OCCCF)c1S(=O)(=O)NC(=O)Nc1nc(OC)cc(OC)n1 [(25)]
% damage Chenopodium (weeds [1]; [15]): 90% | % damage Datura (weeds [1]; [15]): 90% | % damage Echinochloa (weeds [1]; [15]): 90% | % damage Stellaria (weeds [1]; [15]): 90% | % damage Viola (weeds [1]; [15]): 100% | % damage Alopecurus (weeds [1]; [16]): 95% | % damage Amaranthus (weeds [1]; [16]): 100% | % damage Avena fatua (weeds [1]; [16]): 90% | % damage Galium (weeds [1]; [16]): 95% | % damage Setaria (weeds [1]; [16]): 100% | % damage Xanthium (weeds [1]; [16]): 100% | % damage Wheat ([2]; 125 g of a.i./ha): 0% | % damage Abutilon (weeds [3]; [15]): 95% | % damage Alopecurus (weeds [3]; [15]): 90% | % damage Amaranthus (weeds [3]; [15]): 100% | % damage Datura (weeds [3]; [15]): 100% | % damage Solanum (weeds [3]; [15]): 100% | % damage Abutilon (weeds [3]; [16]): 100% | % damage Alopecurus (weeds [3]; [16]): 90% | % damage Amaranthus (weeds [3]; [16]): 100% | % damage Avena fatua (weeds [3]; [16]): 90% | % damage Galium (weeds [3]; [16]): 100% | % damage Setaria (weeds [3]; [16]): 100% | % damage Sinapis (weeds [3]; [16]): 100% | % damage Wheat ([4]; 125 g of a.i./ha): 10%

melting point: 161 °C
SMILES: COc1nc(C)nc(NC(=O)NS(=O)(=O)c2c(C)cccc2OCCF)n1 [Example 1, N-[2-(2-fluoroethoxy)-6-methylphenylsulfonyl]-N′-(4-methoxy-6-methyl-1,3,5-triazin-2-yl)urea]
activity against weeds (weeds [1]): very strong activity | activity against weeds (weeds [3]): very strong activity | efficacy against mildew of apples (Podosphaera leucotricha) [5]: 100%

SMILES: CCCc1cccc(OCCCF)c1S(=O)(=O)NC(=O)Nc1nc(OC)nc(OC)n1 [Example 8]
activity against weeds (weeds [1]): very strong activity | activity against weeds (weeds [3]): very strong activity

SMILES: COc1cc(Cl)nc(NC(=O)NS(=O)(=O)c2c(C)cccc2OCCCF)n1 [Example 14]
activity against weeds (weeds [1]): very strong activity | activity against weeds (weeds [3]): very strong activity

SMILES: COc1nc(NC(=O)NS(=O)(=O)c2c(C)cccc2OCCCF)nc(OC)n1 [Example 15]
activity against weeds (weeds [1]): very strong activity | activity against weeds (weeds [3]): very strong activity

SMILES: CCc1cccc(OCCCF)c1S(=O)(=O)NC(=O)Nc1nc(C)nc(OC)n1 [Example 17]
activity against weeds (weeds [1]): very strong activity | activity against weeds (weeds [3]): very strong activity

SMILES: COc1cc(Cl)nc(NC(=O)NS(=O)(=O)c2c(OCCF)cccc2C(F)(F)F)n1 [Example 20]
activity against weeds (weeds [1]): very strong activity | activity against weeds (weeds [3]): very strong activity

SMILES: COc1nc(NC(=O)NS(=O)(=O)c2c(OCCF)cccc2C(F)(F)F)nc(OC)n1 [Example 21]
activity against weeds (weeds [1]): very strong activity | activity against weeds (weeds [3]): very strong activity

SMILES: COc1cc(OC)nc(NC(=O)NS(=O)(=O)c2c(C)cccc2OCCF)n1 [Example 24]
activity against weeds (weeds [1]): very strong activity | activity against weeds (weeds [3]): very strong activity | efficacy against mildew of apples (Podosphaera leucotricha) [5]: 100%

SMILES: CCCc1cccc(OCCCF)c1S(=O)(=O)NC(=O)Nc1nc(OC)cc(OC)n1 [Example 25]
activity against weeds (weeds [1]): very strong activity | activity against weeds (weeds [3]): very strong activity | efficacy against mildew of apples (Podosphaera leucotricha) [5]: 100%

SMILES: CCCc1cccc(OCCF)c1S(=O)(=O)NC(=O)Nc1nc(OC)cc(OC)n1 [Example 26]
activity against weeds (weeds [1]): very strong activity | activity against weeds (weeds [3]): very strong activity | efficacy against mildew of apples (Podosphaera leucotricha) [5]: 100%

SMILES: COc1cc(OC)nc(NC(=O)NS(=O)(=O)c2c(C)cccc2OCCF)n1 [drawing 17]
% efficacy [5]: 100%

SMILES: COc1nc(C)nc(NC(=O)NS(=O)(=O)c2c(C)cccc2OCCF)n1 [drawing 18]
% efficacy [5]: 100%

SMILES: CCCc1cccc(OCCCF)c1S(=O)(=O)NC(=O)Nc1nc(OC)cc(OC)n1 [drawing 19]
% efficacy [5]: 100%

SMILES: CCCc1cccc(OCCF)c1S(=O)(=O)NC(=O)Nc1nc(OC)cc(OC)n1 [drawing 20]
% efficacy [5]: 100%
